Test results reported in article PMC7822874, “Chemoprotective antimalarials identified through quantitative high-throughput screening of Plasmodium blood and liver stage parasites” (Scientific Reports, 2021).
Where two headings read alike, the source gives them in different places.

Assays:
[1] = system: P. falciparum Dd2 (clone B2) asexual blood stage parasites; test: P. falciparum Dd2 asexual blood stage SYBR Green-I 72 h proliferation assay (qHTS); assay type: cell-based, Plasmodium falciparum; details: averaged P. falciparum asexual blood stage potency, log10 of AC50 in M
[2] = system: P. berghei-ANKA-GFP-LucCON liver stage parasites in HepG2-A16-CD81EGFP cells; test: P. berghei liver stage Pb-Luc assay, Method 1 (UCSD, 1536-well); assay type: cell-based, Plasmodium berghei; details: P. berghei liver stage, averaged response (percent); for Average P. berghei 1 µM response (%): the header list (r8) defines it as the 1 µM dose
HepG2-A16-CD81EGFP cells = details: averaged response (percent)
[3] = HepG2, the header list (r10) describes it as the 1 µM dose

SMILES | Pf ABS Log AC50 (M) [1] | Average P. berghei 3 µM response( %) [2] | Average P. berghei 1 µM response (%) [2] | Average HepG2 3 µM response( %) (HepG2-A16-CD81EGFP cells; HepG2, 3 µM dose) | Average HepG2 3 µM response( %) (HepG2-A16-CD81EGFP cells; [3])
CCCCCC(=O)O[C@]1(C(C)=O)CC[C@H]2[C@@H]3CCC4=CC(=O)CC[C@]4(C)[C@H]3CC[C@@]21C [MLS000028438] | -5.700 M | 29% | 85% | 104% | 104%
CCOC(=O)c1cn(CC)c2cc(N3CCSCC3)c(F)cc2c1=O [MLS000038775] | -6.012 M | 21% | – | 85% | 89%
Clc1ccc(-c2nnc(N3CCCC3)nn2)cc1 [MLS000038815] | -5.512 M | 153% | 160% | 104% | 104%
Oc1cc2c(cc1CN1CCN(c3ccccc3)CC1)CCC2 [MLS000058156] | -5.587 M | 107% | 92% | 101% | 102%
O=C(Nc1ccc(Cl)cc1)Nc1ccc2c(c1)N1CCN=C1S2 [MLS000078440] | -5.612 M | 69% | – | 94% | 98%
CCCCn1c2c(c(=N)c3c1CCC3)CCC2 [MLS000080126] | -5.587 M | 4% | 41% | 80% | 110%
N=c1c2c(n(Cc3ccccc3)c3c1CCC3)CCC2 [MLS000080128] | -5.712 M | 16% | 14% | 74% | 94%
Cc1ccc(-n2c(C)cc(C(=O)OCC(=O)N(C)C3CCS(=O)(=O)C3)c2C)cc1 (stereo not shown) [MLS000098265] | -5.487 M | 106% | 136% | 101% | 101%
COc1ccccc1NC(=O)CN1CCN(C(=O)c2ccco2)CC1 [MLS000122729] | -5.462 M | 65% | 115% | 102% | 102%
